# Source: patent US20240057598A1, “USE OF 2-AMINO-3-METHYLHEXANOIC ACID AS PLANT IMMUNITY INDUCER” (NANJING AGRICULTURAL UNIVERSITY, priority 2020, published 2024)
# Legend:
# E. coli B = details: cited from earlier work
# tea variety Longjing 43 = experiment: Field test: resistance of tea plants to high temperature and tea quality; type: in vivo; details: for Amino acid content: 5th day after use, tea leaves under high temperature stress; for Heat injury rate: 10th day after use, field; for PIABS: field heat stress
# Protocol: In August 2020, a field test was conducted in the Sun Yat-sen Mausoleum Tea Garden in Nanjing, and the tea variety was Longjing 43. During the test, the actual temperature of the field was 37.6° C.-45.1° C., the concentration of 2-amino-3-methylhexanoic acid was 0, 10, 100, 1,000 and 10,000 nM, and 0.02% Tween 20 was added as a surfactant. Three repetitions were set for each treatment group. In a plot area of 20 m^2, the liquid spraying volume per plot was 2 L. The pesticide was applied to the field three times on August 6, August 8 and Aug. 15, 2020 respectively. On the 3rd, 7th and 14th days after the last use of the pesticide, the phenotype of a tea tree was observed, and a leaf and a bud were sampled from the top of the tea tree. 15 leaves were taken for each treatment group, and the chlorophyll fluorescence parameter PIABS ([…]) of tea leaves was determined with a plant efficiency analyzer Handy-PEA. Samples were taken and the total amino acid content in tea leaves was determined on the 5th day after use of the pesticide, and the heat injury rate was calculated on the 10th day after use of the pesticide.
# Achromobacter butyri = details: cited from earlier work
# S. marcescens = details: cited from earlier work
# Escherichia coli K-12 = details: cited from earlier work
# A. ureafaciens = details: cited from earlier work
# [1] = test system: tomato spotted wilt virus; experiment: Induced resistance of tobacco to tomato spotted wilt virus infection; type: in vivo; details: for Relative immune effect / Disease index: tobacco; for Content of virus protein: tobacco leaves, 3 days, Western blot, relative
# Protocol: Tomato spotted wilt virus was obtained from Yunnan Province, China. The initial virus source was stored in a refrigerator at −80° C. Nicotiana benthamiana leaves were inoculated with the virus by mechanical inoculation to activate the virus. Viral plasmids were extracted and transformed by competent cells of Escherichia coli. The competent cells were spread on a resistant plate and cultured. Single colonies were selected for PCR screening. Positive colonies were selected for sequencing and subsequent plasmid extraction. Plasmids with normal sequencing were added to competent cells of Agrobacterium, and the Agrobacterium was transformed by electroporation. A solution of the transformed Agrobacterium was spread on the correspondingly resistant screening plate, and cultured at 28° C. (±1) for 48 h. Single colonies of the Agrobacterium on the transformation plate were selected, placed in 5 mL of correspondingly resistant LB medium, and cultured overnight at 28° C. and 180 rpm. Bacterial cells were collected by 2 min of centrifugation at 6,000 rpm, and suspended with an Agrobacterium treatment buffer solution (10 mM MgCl2, 10 mM MES, 10 μM Acetosyringone) until the OD600 value of the suspension was 0.5, and the suspension was treated at 28° C. for 3 h in dark for use.
# 2-amino-3-methylhexanoic acid was dissolved in distilled water and then diluted with distilled water by gradient into solutions of 0 nM, 0.5 nM, 1 nM and 10 nM. Nicotiana benthamiana seeds were sowed in a small pot, and cultured at 22 (±1)° C., 16 h/8 h light for 5 weeks. Healthy tobacco plants (preferably with 8-10 leaves) were selected and treated with the 2-amino-3-methylhexanoic acid solutions of the above concentrations to conduct spray treatment on the stems and leaves. The treatment was repeated once after 24 h and conducted twice in total. After 24 h, the Agrobacterium solution with a uniform concentration was extracted using a 1 mL syringe, the injection port of the syringe was pressed directly on a small hole on the back of a tobacco leaf, and the bacterial solution was slowly pushed to soak the whole leaf. The soaked tobacco was moved to an environment of 22 (±1)° C. and cultured under 16 h/8 h light. 3 days later, microscopic observation was conducted. At the same time, samples were taken. The gray scale of protein bands was analyzed by Western blot combined with ImageJ software, and the relative protein content of the virus in the leaves was determined. The incidence of tobacco leaves was observed 15 days later, and the disease indexes were recorded according to the Grade and Investigation Method of Tobacco Diseases and Insect Pests (GB/T23222-2008) using a formula as follows: […]
# Grading standard of tomato spotted wilt virus infection (grading and investigation were conducted per plant): • Grade 0: The whole plant is disease free. • Grade 1: Heart leaves have clear veins or are slightly mottled, and the diseased plant is not obviously dwarfed. • Grade 3: One-third of leaves are mottled without deformation, or the diseased plant is dwarfed to three quarters or more of a normal plant in height. • Grade 5: One-third to one-half of leaves are mottled, or a few leaves are deformed, or the main veins become black, or the plant is dwarfed to two-thirds to three-quarters of a normal plant in height. • Grade 7: One-half to two-thirds of leaves are mottled or deformed, or a few main and lateral veins become necrotic, or the plant is dwarfed to one-half to two-thirds of a normal plant in height. • Grade 9: The leaves of the whole plant are mottled, seriously deformed or necrotic, or the diseased plant is dwarfed to […] of a normal plant in height.
# [2] = each concentration in range 0.5-10 nM
structure (smiles),measurement,setting,value
CCCC(C)C(N)C(=O)O (stereo not drawn) [2-amino-3-methylhexanoic acid],Inhibitory effect,E. coli B,slight inhibitory effect
same,Amino acid content,tea variety Longjing 43; 10 nM,2.03 ± 0.05b % DW
same,Heat injury rate,"tea variety Longjing 43; 10 nM, tea leaves",30%
same,PIABS,"tea variety Longjing 43; 10 nM, 3 d after last use, tea leaves",6.25 ± 0.51c
same,PIABS,"tea variety Longjing 43; 10 nM, 7 d after last use, tea leaves",6.43 ± 0.44b
same,PIABS,"tea variety Longjing 43; 10 nM, 14 d after last use, tea leaves",14.44 ± 0.59c
same,Increase of total amino acid content versus control group,"tea variety Longjing 43; 10 nM, high temperature stress",22%
same,Amino acid content,tea variety Longjing 43; 100 nM,2.21 ± 0.32a % DW
same,Heat injury rate,"tea variety Longjing 43; 100 nM, tea leaves",17%
same,PIABS,"tea variety Longjing 43; 100 nM, 3 d after last use, tea leaves",8.26 ± 0.63b
same,PIABS,"tea variety Longjing 43; 100 nM, 7 d after last use, tea leaves",8.07 ± 0.36a
same,PIABS,"tea variety Longjing 43; 100 nM, 14 d after last use, tea leaves",19.29 ± 0.95b
same,Increase of total amino acid content versus control group,"tea variety Longjing 43; 100 nM, high temperature stress",33%
same,Amino acid content,"tea variety Longjing 43; 1,000 nM",2.20 ± 0.05a % DW
same,Heat injury rate,"tea variety Longjing 43; 1,000 nM, tea leaves",15%
same,PIABS,"tea variety Longjing 43; 1,000 nM, 3 d after last use, tea leaves",8.48 ± 0.61ab
same,PIABS,"tea variety Longjing 43; 1,000 nM, 7 d after last use, tea leaves",8.14 ± 0.70a
same,PIABS,"tea variety Longjing 43; 1,000 nM, 14 d after last use, tea leaves",19.85 ± 1.04ab
same,Increase of total amino acid content versus control group,"tea variety Longjing 43; 1,000 nM, high temperature stress",33%
same,PIABS higher than control group,"tea variety Longjing 43; 10,000 nM, 3rd day after use",108%
same,Amino acid content,"tea variety Longjing 43; 10,000 nM",2.23 ± 0.08a % DW
same,PIABS higher than control group,"tea variety Longjing 43; 10,000 nM, 7th day after use",48%
same,Heat injury rate,"tea variety Longjing 43; 10,000 nM, tea leaves",14%
same,PIABS higher than control group,"tea variety Longjing 43; 10,000 nM, 14th day after use",52%
same,PIABS,"tea variety Longjing 43; 10,000 nM, 3 d after last use, tea leaves",8.68 ± 0.56a
same,PIABS,"tea variety Longjing 43; 10,000 nM, 7 d after last use, tea leaves",8.36 ± 0.51a
same,PIABS,"tea variety Longjing 43; 10,000 nM, 14 d after last use, tea leaves",21.97 ± 0.88a
same,Increase of total amino acid content versus control group,"tea variety Longjing 43; 10,000 nM, high temperature stress",34%
same,Optimum use concentration (accumulation of amino acids in tea leaves),"tea variety Longjing 43; tea leaves, high temperature stress",100 nM
same,Inhibitory effect,Achromobacter butyri,slight inhibitory effect
same,Inhibitory effect,S. marcescens,no inhibitory effect
same,Inhibitory effect,Escherichia coli K-12,obvious inhibitory effect
same,Inhibitory effect,A. ureafaciens,slight inhibitory effect
same,Relative immune effect,[1]; 0.5 nM,59.06%
same,Relative immune effect,[1]; 1 nM,52.36%
same,Content of virus protein,[1]; 1 nM,0.33 ± 0.001c
same,Disease index,"[1]; 1 nM, 15 days after inoculation",44.81 ± 3.90c
same,Relative immune effect,[1]; 10 nM,22.05%
same,Content of virus protein,[1]; 10 nM,0.44 ± 0.007b
same,Disease index,"[1]; 10 nM, 15 days after inoculation",73.33 ± 2.22b
same,Disease index,[1]; [2],lower than 75
same,Relative immune effect,[1]; [2],≥ 20%
